Measured values taken from US7049066B2, “Diagnosis and treatment of myocardial failure” (The Regents of the University of Colorado, priority 1997, dated 2006).

Tests used:
α-MHC = settings: hypothyroid rats; cited from earlier work
[1] = tested on: isolated right ventricular (RV) trabeculae from end-stage failing human hearts; settings: 1 nM T3, incubated for 4 or 12 hours

Row | Structure (SMILES) | production of α-MHC (α-MHC) | SRCA gene expression, T3 group compared to control group [1] | adrenergic receptor gene expression, T3 group compared to control group [1] | % α-MHC isoform mRNA present following incubation ([1]; p < .05 vs. no T3) [%] | % β-MHC isoform mRNA present following incubation ([1]; p < .05 vs. no T3) [%]
1 | O=C(O)CCc1cc(I)c(Oc2ccc(O)cc2)c(I)c1 [3,5-diiodothyroproprionic acid] | increase the production of (α-MHC |  |  |  | 
2 | N[C@@H](Cc1cc(I)c(Oc2ccc(O)c(I)c2)c(I)c1)C(=O)O [T3, 3,5,3′-triiodo-L-thyronine] |  | no significant differences | no significant differences | 24.5 ± 9.29 | 75.5 ± 9.29
